These results are taken from patent US9233961B2, “Compounds and compositions for the treatment of parasitic diseases” (Novartis AG, priority 2013, dated 2016).

Test [1] has as its system Trypanosoma brucei Lister 427 strain bloodstream form. In words: Assay for proliferation of kinetoplastid parasite Trypanosoma brucei. It counts as cell-based. Conditions: read-out: T. brucei EC50. In short, it runs like this:
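Bloodstream-form T. brucei Lister 427 in HMI-9 medium was exposed to compound (DMSO vehicle) for 48 hours at 37° C, 5% CO2. Parasite growth was read as ATP by CellTiter-Glo luminescence, with EC50 calculated from percent inhibition.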

Test [2] has as its system Leishmania donovani axenic amastigote parasites. In words: Leishmania donovani axenic amastigote proliferation assay. It counts as cell-based. Conditions: read-out: L. donovani amastigotes EC50. In short, it runs like this:
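L. donovani axenic amastigotes (9600/well) in RPMI 1640 with 20% heat-inactivated FBS, folic acid, adenosine, glucose and 25 mM MES, pH 5.5, were incubated with compounds for 2 days at 37 °C, 5% CO2. Viability read by CellTiter-Glo luminescence; EC50 calculated.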

The test system of test [3] is L. donovani HU3 strain in mouse peritoneal macrophages. In words: Assay for proliferation of Leishmania parasites in mouse peritoneal macrophages. Format: cell-based, Leishmania donovani. In short, it runs like this: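 BALB/c peritoneal macrophages infected 24 h with L. donovani HU3 amastigotes taken from spleens of mice infected 9–11 weeks, then treated with compound for 5 days at 37° C, 5% CO2. Parasite nuclei counted by SYBR Green imaging after fixation; EC50 from percentage inhibition.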

The subject of test [4] is Trypanosoma cruzi amastigotes (Tulahuen strain) cultured in 3T3 fibroblast cells. In words: Assay for proliferation of kinetoplastid parasite Trypanosoma cruzi. It counts as cell-based. As to conditions: 144 h. From the text: Assay for Proliferation of Kinetoplastid Parasite Trypanosoma cruzi.
Compounds of the invention can be assayed to measure their capacity to inhibit proliferation of kinetoplastid parasite Trypanosoma cruzi. The screening procedure is for identifying compounds with inhibitor activity against Trypanosoma cruzi amastigotes cultured in 3T3 fibroblast cells. The assay is done using the mammalian stage (amastigotes) of T. cruzi that replicates in the intracellular space of host cells. The host cells are initially infected with the culture-derived trypomastigotes that rapidly invade and then divide as amastigotes. The protocol uses the Tulahuen strain of T. cruzi that has been engineered to express the E. coli beta-galactosidase gene (Lac-Z) (Antimicr. Agents Chemoth. 40:2592, 1996). This allows for a colorimetric readout by using the substrate CPRG and an absorbance plate reader.
3T3 fibroblast cells are re-suspended in RPMI-1640 medium without phenol red medium supplemented with 10% FBS (heat inactivated), 100 μg/ml penicillin, and 100 μg/ml streptomycin. Forty μL of suspension (1,000 cells) is dispensed into 384-well plates and incubated overnight at 37° C. temperature and in atmosphere containing 5% CO2. The following day, 100 nL of compounds of the invention in DMSO are added to plate wells containing 3T3 cells. At the same time control compounds (benznidazole and nifurtimox) and DMSO are added to plates to serve as the positive and negative controls, respectively. After that, 10 μL of media containing 10,000 T. cruzi trypomastigotes are added to each plate well and plates are placed back into incubators. After 6 day incubation, 10 μL of reagent solution (0.6 mM CPRG, 0.6% NP-40 in PBS) is added to plates and incubated at room temperature for 2 hours. Absorbance is then measured on SpectraMax Gemini […] to determine relative number of T. cruzi cells present in each plate well. The percentage inhibition of 50%, EC50, is calculated for each compound. […] Typically, the EC50 is 10 μM or less.

Setting [5] is: Lister 427 bloodstream form, 48 hours.
Setting [6] is: Leishmania donovani, Peritoneal macrophage, read-out: L. donavani Macrophage EC50.
[7] abbreviates: Tulahuen amastigotes in 3T3 fibroblast cells, 6 day incubation, read-out: T cruzi EC50.
[8] abbreviates: Leishmania donovani, Peritoneal macrophage, 120 h, L. donovani in mouse peritoneal macrophages, 5 days culture, SybrGreen parasite nuclei count, read-out: EC50.
Setting [9] is: TULAHUEN, Fibroblast, read-out: T cruzi EC50.

The structures appear in SMILES notation. Where two headings read alike, the source gives them in different places. A value given as a limit tells only on which side of the number the result lay.

A word on the EC50: it is the concentration needed to bring the measured effect to its halfway point. In the case of `Cc1cnc2nc(-c3cc(NC(=O)N(C)C4CCCC4)ccc3Cl)[nH]c2c1` [Compound 231], the EC50 in test [1] (setting [5]) is > 23.2 µM; in test [2] (axenic amastigotes in vitro) it was > 25 µM; in test [3] (setting [6]) it was 27.9 µM; in test [4] (setting [7]), > 20 µM.
As to `Cc1cnc2nc(-c3cc(NC(=O)N(C)c4ccccc4)ccc3Cl)[nH]c2c1` [Compound 241], the concentration for a half-maximal effect (EC50) in test [1] (setting [5]) was 9.7 µM; in test [2] (axenic amastigotes in vitro), 14.2 µM; in test [3] (setting [6]), > 47.5 µM; in test [4] (setting [7]) it was 10.4 µM.
For `Cc1cnc2nc(-c3cc(NC(=O)C4CCCCO4)ccc3Cl)[nH]c2c1` (stereo not shown) [Compound 131] the same measures were 5.1 µM, 22.1 µM, > 50 µM and 6.8 µM.
For `Cc1cnc2nc(-c3cc(NC(=O)N4CC(F)(F)C[C@@H]4c4cccc(F)c4)ccc3Cl)[nH]c2c1` [Compound 229] the same measures were > 23.3 µM, > 25 µM, > 50 µM and > 20 µM.
Consider `O=C(Nc1ccc(Cl)c(-c2nc3ncc(Br)cc3[nH]2)c1)c1cnccn1` [Compound 375], for which the EC50 in test [1] (setting [5]) was 2.35 µM; in test [2] (axenic amastigotes in vitro) it was 7.5 µM; in test [3] (setting [6]) it was > 42.7 µM; in test [4] (setting [7]) it was 3.9 µM.
For `Cc1cnc2nc(-c3cc(NC(=O)NCCN(C(C)C)C(C)C)ccc3Cl)[nH]c2c1` [Compound 236] the same measures were 1.11 µM, > 25 µM, 28.8 µM and 17.9 µM.
The corresponding values for `COc1cccc(C(=O)Nc2ccc(Cl)c(-c3nc4ncc(C)cc4[nH]3)c2)c1` [Compound 134] are 0.89 µM, 21.4 µM, 13.9 µM and 2.59 µM.
Regarding `CCN(C)C(=O)Nc1ccc(Cl)c(-c2nc3ncc(C)cc3[nH]2)c1` [Compound 242], the EC50 in test [1] (setting [5]) was found to be 0.36 µM; in test [2] (axenic amastigotes in vitro), 4.3 µM; in test [3] (setting [6]), 25.5 µM; in test [4] (setting [7]), 1.38 µM.
The corresponding values for `Cc1cnc2nc(-c3cc(NC(=O)c4cccn4C)ccc3Cl)[nH]c2c1` [Compound 151] are 1.83 µM, 17.1 µM, 19.5 µM and 3.7 µM.
For `COCCOC(=O)Nc1ccc(Cl)c(-c2nc3ncc(-c4ccc5c(c4)CC(=O)N5)cc3[nH]2)c1` [Compound 379] the same measures were 0.69 µM, 1.49 µM, 8.7 µM and 13.2 µM.
Turning to `Cc1cnc2nc(-c3cc(NC(=O)N4CC5CC5C4)ccc3Cl)[nH]c2c1` (stereo not shown) [Compound 230], the EC50 in test [1] (setting [5]) came out at 1.48 µM; in test [2] (axenic amastigotes in vitro), 5.4 µM; in test [3] (setting [6]) it was 13.3 µM; in test [4] (setting [7]) it was 3.6 µM.
Consider `Cc1cnc2nc(-c3cc(NC(=O)c4ccc(C)o4)ccc3Cl)[nH]c2c1` [Compound 126], for which the EC50 in test [1] (setting [5]) is 0.303 µM; in test [2] (axenic amastigotes in vitro), 1.6 µM; in test [3] (setting [6]), 1.63 µM; in test [4] (setting [7]), 0.148 µM.
The corresponding values for `Cc1cnc2nc(-c3cc(NC(=O)C4CCCCN4)ccc3Cl)[nH]c2c1` (stereo not shown) [Compound 171] are > 7.5 µM, > 25 µM, > 50 µM and 7.5 µM.
As for `CN(C(=O)OC(C)(C)C)c1ccc(-c2cnc3nc(-c4cc(NC(=O)N5CCCC5)ccc4Cl)[nH]c3c2)cc1` [Compound 308, tert-butyl N-[4-(2-{2-chloro-5-[(pyrrolidin-1-yl)carbonylamino]phenyl}-1H-imidazo[4,5-b]pyridin-6-yl)phenyl]-N-methylcarbamate], the EC50 was 0.025 µM in test [1] (setting [5]); 0.114 µM in test [2] (axenic amastigotes in vitro); ~0.08 µM in test [3] (setting [8]); 0.085 µM in test [3] (setting [6]); 0.023 µM in test [4] (setting [7]).
`COCCOc1ccc(-c2cnc3nc(-c4cc(NC(=O)c5ccco5)ccc4Cl)[nH]c3c2)c(F)n1` [Compound 52]: the concentration for a half-maximal effect (EC50) in test [1] (setting [5]) is 0.036 µM; in test [2] (axenic amastigotes in vitro) it was 0.188 µM; in test [3] (setting [6]), > 14.5 µM; in test [4] (setting [7]), 0.068 µM.
For `Cc1cnc2nc(-c3cc(NC(=O)Cc4cccc(Cl)c4)ccc3Cl)[nH]c2c1` [Compound 85] the same measures were 9.3 µM, > 25 µM, 21.3 µM and > 11.5 µM.
The corresponding values for `Cc1cnc2nc(-c3cc(NC(=O)c4ccc(Cl)o4)ccc3Cl)[nH]c2c1` [Compound 86] are 0.183 µM, 0.84 µM, 3.09 µM and 0.069 µM.
For `Cc1cnc2nc(-c3cc(NC(=O)c4ccccc4N(C)C)ccc3Cl)[nH]c2c1` [Compound 150] the same measures were 12.1 µM, > 25 µM, 22.8 µM and 8.9 µM.
In the case of `O=C(Nc1ccc(Cl)c(-c2nc3ncc(-c4ccccc4)cc3[nH]2)c1)N1CCCC1` [Example 291, N-(4-chloro-3-{6-phenyl-1H-imidazo[4,5-b]pyridin-2-yl}phenyl)pyrrolidine-1-carboxamide], the EC50 in test [1] (setting [5]) was 0.0152 µM; in test [2] (axenic amastigotes in vitro), 0.076 µM; in test [3] (L. donovani in mouse peritoneal macrophages, 5 days culture, SybrGreen parasite nuclei count, read-out: EC50), ~0.08 µM; in test [3] (setting [8]), 0.076 µM; in test [4] (TULAHUEN, Fibroblast), 0.016 µM; in test [4] (setting [9]), 0.0161 µM.
With `Cc1cnc2nc(-c3cc(NC(=O)NCCCCCCN(C)C)ccc3Cl)[nH]c2c1` [Compound 228], the concentration for a half-maximal effect (EC50) in test [1] (setting [5]) is > 25 µM; in test [2] (axenic amastigotes in vitro), > 25 µM; in test [3] (setting [6]), > 50 µM; in test [4] (setting [7]), > 20 µM.
As for `Cc1cnc2nc(-c3cc(NC(=O)c4cncnc4)ccc3Cl)[nH]c2c1` [Compound 187], the EC50 is 4.2 µM in test [1] (setting [5]), 6.9 µM in test [2] (axenic amastigotes in vitro), > 42.2 µM in test [3] (setting [6]) and > 11.5 µM in test [4] (setting [7]).
The corresponding values for `Cc1cnc2nc(-c3cc(NC(=O)c4cnc(Cl)cn4)ccc3Cl)[nH]c2c1` [Compound 135] are > 1.51 µM, > 25 µM, > 25.9 µM and > 20 µM.
The corresponding values for `CNc1ccc(-c2cnc3nc(-c4cc(NC(=O)c5cnccn5)ccc4Cl)[nH]c3c2)cc1` [Compound 348] are 0.0239 µM, 0.249 µM, 0.92 µM and 0.064 µM.
The corresponding values for `Cc1cnc2nc(-c3cc(NC(=O)OC4CCCC4)ccc3Cl)[nH]c2c1` [Compound 218] are 14.9 µM, > 25 µM, 7.5 µM and 2.14 µM.
As to `Cc1cnc2nc(-c3cc(NC(=O)c4ccc(F)s4)ccc3Cl)[nH]c2c1` [Compound 185], the 50% effective concentration (EC50) in test [1] (setting [5]) was 1.77 µM; in test [2] (axenic amastigotes in vitro), 11.2 µM; in test [3] (setting [6]) it was > 30.7 µM; in test [4] (setting [7]), 0.96 µM.
The corresponding values for `CC(C)(C)OC(=O)N1CC=C(c2cnc3nc(-c4cc(NC(=O)c5ccco5)ccc4Cl)[nH]c3c2)CC1` [Compound 63] are 0.0217 µM, 0.56 µM, 1.6 µM and 0.108 µM.
With `O=C(Nc1ccc(Cl)c(-c2nc3ncc(-c4cccnc4)cc3[nH]2)c1)c1ccco1` [Compound 50], the EC50 in test [1] (setting [5]) turned out to be 0.00262 µM; in test [2] (axenic amastigotes in vitro), 0.134 µM; in test [3] (setting [6]), 1.64 µM; in test [4] (setting [7]), 0.053 µM.
`CCOC(=O)Nc1ccc(Cl)c(-c2nc3ncc(Br)cc3[nH]2)c1` [Example 370, Ethyl N-(3-{6-bromo-1H-imidazo[4,5-b]pyridin-2-yl}-4-chlorophenyl)carbamate]: the 50% effective concentration (EC50) in test [1] (48 h) came out at 0.52 µM; in test [2], 2.53 µM; in test [3] (setting [6]) it was 7.4 µM; in test [4] (setting [9]), 1.2 µM.
